Values after ≈ are worked out from the molar mass of the structure shown.
What was measured:
Type in all cases: functional
[1] = test system: Acinetobacter radioresistens; assay: Antimicrobial activity against plasmid encoded beta-lactamase OXA-58 deficient Acinetobacter radioresistens by CLSI method
[2] = test system: Acinetobacter radioresistens; assay: Antimicrobial activity against Acinetobacter radioresistens 251-39C expressing beta-lactamase OXA-133 by CLSI method
[3] = test system: Acinetobacter radioresistens; assay: Antimicrobial activity against Acinetobacter radioresistens 251-39C expressing beta-lactamase OXA-133 by CLSI method in presence of beta-lactamase inhibitor clavulanate
[4] = test system: Acinetobacter radioresistens; assay: Antimicrobial activity against plasmid encoded beta-lactamase OXA-58 deficient Acinetobacter radioresistens by CLSI method in presence of beta-lactamase inhibitor clavulanate
[5] = test system: Acinetobacter radioresistens; assay: Antimicrobial activity against plasmid encoded beta-lactamase OXA-58 deficient Acinetobacter radioresistens by CLSI method in presence of beta-lactamase inhibitor Sulbactam
[6] = test system: Acinetobacter radioresistens; assay: Antimicrobial activity against Acinetobacter radioresistens 251-39C expressing beta-lactamase OXA-133 by CLSI method in presence of beta-lactamase inhibitor Sulbactam
[7] = test system: Acinetobacter radioresistens; assay: Antimicrobial activity against Acinetobacter radioresistens 251-39C expressing beta-lactamase OXA-133 by CLSI method in presence of beta-lactamase inhibitor Tazobactam
[8] = test system: Acinetobacter radioresistens; assay: Antimicrobial activity against plasmid encoded beta-lactamase OXA-58 deficient Acinetobacter radioresistens by CLSI method in presence of beta-lactamase inhibitor Tazobactam

Row | MIC [1] | MIC [2] | Compound | other results
1 | 1 µg/mL (≈ 2.1 µM) | 4 µg/mL (≈ 8.41 µM) | C[C@@H](O)[C@H]1C(=O)N2C(C(=O)O)=C(S[C@@H]3CN[C@H](C(=O)Nc4cccc(C(=O)O)c4)C3)[C@H](C)[C@H]12 | –
2 | 0.5 µg/mL (≈ 0.854 µM) | 0.5 µg/mL (≈ 0.854 µM) | NCC[C@H](O)C(=O)N[C@@H]1C[C@H](N)[C@@H](O[C@H]2O[C@H](CN)[C@@H](O)[C@H](O)[C@H]2O)[C@H](O)[C@H]1O[C@H]1O[C@H](CO)[C@@H](O)[C@H](N)[C@H]1O [AMIKACIN] | –
3 | – | – | CC1(C)S[C@@H]2[C@H](NC(=O)[C@H](N)c3ccc(O)cc3)C(=O)N2[C@H]1C(=O)O [AMOXICILLIN] | MIC [3]: 32 µg/mL; MIC [4]: 2 µg/mL
4 | – | – | CC1(C)S[C@@H]2[C@H](NC(=O)[C@H](N)c3ccccc3)C(=O)N2[C@H]1C(=O)O [AMPICILLIN] | MIC [5]: 1 µg/mL; MIC [6]: 1 µg/mL
5 | 8 µg/mL (≈ 18.7 µM) | 8 µg/mL (≈ 18.7 µM) | CO[C@@]1(NC(=O)Cc2cccs2)C(=O)N2C(C(=O)O)=C(COC(N)=O)CS[C@@H]21 [CEFOXITIN] | –
6 | 2 µg/mL (≈ 3.61 µM) | 4 µg/mL (≈ 7.21 µM) | CO/N=C(\C(=O)N[C@@H]1C(=O)N2C(C(=O)O)=C(CSc3nc(=O)c(O)nn3C)CS[C@H]12)c1csc(N)n1 [CEFTRIAXONE] | –
7 | 0.25 µg/mL (≈ 0.835 µM) | 8 µg/mL (≈ 26.7 µM) | C[C@@H](O)[C@H]1C(=O)N2C(C(=O)O)=C(SCCNC=N)C[C@H]12 [IMIPENEM ANHYDROUS] | –
8 | 0.25 µg/mL (≈ 0.652 µM) | 1 µg/mL (≈ 2.61 µM) | C[C@@H](O)[C@H]1C(=O)N2C(C(=O)O)=C(S[C@@H]3CN[C@H](C(=O)N(C)C)C3)[C@H](C)[C@H]12 [MEROPENEM] | –
9 | – | – | CCN1CCN(C(=O)N[C@@H](C(=O)N[C@@H]2C(=O)N3[C@@H]2SC(C)(C)[C@@H]3C(=O)O)c2ccccc2)C(=O)C1=O [PIPERACILLIN] | MIC [7]: 64 µg/mL; MIC [8]: 1 µg/mL
10 | ≤ 2 µg/mL | ≤ 2 µg/mL | CN(C)[C@@H]1C(O)=C(C(N)=O)C(=O)[C@@]2(O)C(O)=C3C(=O)c4c(O)cccc4[C@@](C)(O)[C@H]3C[C@@H]12 [TETRACYCLINE] | –
11 | – | – | CC1(C)S[C@@H]2[C@H](NC(=O)[C@H](C(=O)O)c3ccsc3)C(=O)N2[C@H]1C(=O)O [TICARCILLIN] | MIC [3]: > 256 µg/mL; MIC [4]: 4 µg/mL
12 | 2 µg/mL (≈ 4.28 µM) | 2 µg/mL (≈ 4.28 µM) | NC[C@H]1O[C@H](O[C@H]2[C@H](O)[C@@H](O[C@H]3O[C@H](CO)[C@@H](O)[C@H](N)[C@H]3O)[C@H](N)C[C@@H]2N)[C@H](N)C[C@@H]1O [TOBRAMYCIN] | –
13 | < 0.5 µg/mL | < 0.5 µg/mL | POLYMYXIN B | –

Row | Compound | MIC [1] | MIC [2] | other results
14 | CC(C)(O/N=C(\C(=O)N[C@@H]1C(=O)N2C(C(=O)[O-])=C(C[n+]3ccccc3)CS[C@H]12)c1csc(N)n1)C(=O)O [CEFTAZIDIME] | 0.5 µg/mL (≈ 0.915 µM) | 0.5 µg/mL (≈ 0.915 µM) | –

Reference: ChEMBL document CHEMBL1629591, “Codetection of blaOXA-23-like gene (blaOXA-133) and blaOXA-58 in Acinetobacter radioresistens: report from the SENTRY antimicrobial surveillance program” (2009)
